Source: patent US8916526B2, “Flavanone derivative” (National University Corporation Okayama University, priority 2009, dated 2014)
In brackets after ≈: the same amount, converted by molar mass.

Columns and labels:
[1] = system: Streptococcus pneumoniae R6; assay: In vitro infectivity assay (MIC), Exp. Ex. 2-1; format: cell-based; settings: Streptococcus pneumoniae, R6; Gram-positive; microdilution, MIC after 24 h; read-out: MIC S. Pneumoniae R6
E. coli DNA gyrase = target: T1, E. coli DNA gyrase (Escherichia coli, UniProt P0AES4+P0AES6); assay: DNA gyrase inhibition (supercoiling kit), Exp. Ex. 2-2; format: biochemical
T1 construct: purchased John Innes Enterprises #K0001
T1 sequence (P0AES4 whole entry, one chain of several): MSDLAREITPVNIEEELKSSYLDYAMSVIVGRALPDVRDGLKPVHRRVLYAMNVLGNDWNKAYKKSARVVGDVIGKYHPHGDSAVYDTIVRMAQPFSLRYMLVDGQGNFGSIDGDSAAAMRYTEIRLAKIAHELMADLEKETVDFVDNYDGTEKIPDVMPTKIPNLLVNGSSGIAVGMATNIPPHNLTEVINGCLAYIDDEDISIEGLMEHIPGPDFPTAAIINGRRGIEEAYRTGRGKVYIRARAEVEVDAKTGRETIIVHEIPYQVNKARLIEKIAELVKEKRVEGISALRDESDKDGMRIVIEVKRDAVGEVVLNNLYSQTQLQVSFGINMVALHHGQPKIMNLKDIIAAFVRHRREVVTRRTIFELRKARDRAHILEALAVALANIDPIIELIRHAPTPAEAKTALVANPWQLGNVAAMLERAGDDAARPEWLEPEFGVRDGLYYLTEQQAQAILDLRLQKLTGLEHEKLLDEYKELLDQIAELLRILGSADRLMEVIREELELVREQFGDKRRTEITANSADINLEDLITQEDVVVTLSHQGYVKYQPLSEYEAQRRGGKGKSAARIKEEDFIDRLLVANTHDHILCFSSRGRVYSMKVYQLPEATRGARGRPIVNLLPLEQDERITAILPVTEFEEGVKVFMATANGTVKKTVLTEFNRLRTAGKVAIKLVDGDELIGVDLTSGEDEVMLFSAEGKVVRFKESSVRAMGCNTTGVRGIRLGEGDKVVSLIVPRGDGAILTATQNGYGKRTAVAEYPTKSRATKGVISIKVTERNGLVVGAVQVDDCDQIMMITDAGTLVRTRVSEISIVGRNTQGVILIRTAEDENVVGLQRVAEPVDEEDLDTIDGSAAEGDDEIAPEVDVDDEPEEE
Summary of the method: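 Supercoiling of relaxed pBR322 DNA ([…]) by 1 U E. coli gyrase, 37° C for 30 minutes, in 35 mM Tris-HCl pH 7.5 with 1 mM ATP, 4 mM MgCl2, 24 mM KCl, spermidine and DTT. Products resolved by electrophoresis to derive IC50.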

VRE FN-1 = assay: In vitro infectivity assay (MIC), broth dilution, Exp. Ex. 1-1; format: cell-based, enterococci; settings: Enterococcus; VRE FN-1; Mueller-Hinton broth, 35° C., 24 hours; read-out: MIC VRE FN-1
Summary of the method: (§1)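 Antibacterial activity was determined by the CLSI broth dilution technique. Bacteria at about 10^5 CUF/[…] grew in Mueller-Hinton broth containing 0.85% NaCl for 24 hours at 35° C., and minimum inhibitory concentrations were recorded from three measurements.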

VRE NCTC12201 = assay: as above; format: cell-based, enterococci; settings: Enterococcus; VRE NCTC12201; Mueller-Hinton broth, 35° C., 24 hours; read-out: MIC VRE NCTC12201
Summary of the method: as §1

[2] = target: T2, Escherichia coli Topoisomerase IV (Escherichia coli, UniProt P0AFI2+P20083); assay: Topoisomerase IV inhibition (decatenation kit), Exp. Ex. 2-3; format: biochemical; settings: decatenation of kDNA, 37° C., 30 minutes; read-out: IC50 (E. coli topoisomerase IV inhibitions)
T2 construct: purchased John Innes Enterprises
T2 sequence (P20083 whole entry): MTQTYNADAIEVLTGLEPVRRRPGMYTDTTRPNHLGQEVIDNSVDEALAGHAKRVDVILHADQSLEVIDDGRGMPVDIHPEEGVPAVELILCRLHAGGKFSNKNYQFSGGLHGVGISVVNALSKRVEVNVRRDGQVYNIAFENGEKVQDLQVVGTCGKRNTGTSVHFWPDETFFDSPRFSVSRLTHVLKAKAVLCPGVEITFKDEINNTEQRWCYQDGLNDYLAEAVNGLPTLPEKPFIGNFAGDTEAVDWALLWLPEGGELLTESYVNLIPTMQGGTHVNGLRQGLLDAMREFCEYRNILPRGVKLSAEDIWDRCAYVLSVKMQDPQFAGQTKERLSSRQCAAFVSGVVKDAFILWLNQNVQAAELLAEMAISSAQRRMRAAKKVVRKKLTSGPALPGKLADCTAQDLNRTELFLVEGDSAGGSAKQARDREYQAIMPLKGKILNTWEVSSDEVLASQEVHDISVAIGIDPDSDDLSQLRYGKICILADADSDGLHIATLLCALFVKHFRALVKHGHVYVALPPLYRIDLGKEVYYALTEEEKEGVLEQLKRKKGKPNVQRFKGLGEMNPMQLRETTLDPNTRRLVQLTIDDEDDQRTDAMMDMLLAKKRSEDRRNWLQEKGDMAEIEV
T2 sequence (P0AFI2 whole entry): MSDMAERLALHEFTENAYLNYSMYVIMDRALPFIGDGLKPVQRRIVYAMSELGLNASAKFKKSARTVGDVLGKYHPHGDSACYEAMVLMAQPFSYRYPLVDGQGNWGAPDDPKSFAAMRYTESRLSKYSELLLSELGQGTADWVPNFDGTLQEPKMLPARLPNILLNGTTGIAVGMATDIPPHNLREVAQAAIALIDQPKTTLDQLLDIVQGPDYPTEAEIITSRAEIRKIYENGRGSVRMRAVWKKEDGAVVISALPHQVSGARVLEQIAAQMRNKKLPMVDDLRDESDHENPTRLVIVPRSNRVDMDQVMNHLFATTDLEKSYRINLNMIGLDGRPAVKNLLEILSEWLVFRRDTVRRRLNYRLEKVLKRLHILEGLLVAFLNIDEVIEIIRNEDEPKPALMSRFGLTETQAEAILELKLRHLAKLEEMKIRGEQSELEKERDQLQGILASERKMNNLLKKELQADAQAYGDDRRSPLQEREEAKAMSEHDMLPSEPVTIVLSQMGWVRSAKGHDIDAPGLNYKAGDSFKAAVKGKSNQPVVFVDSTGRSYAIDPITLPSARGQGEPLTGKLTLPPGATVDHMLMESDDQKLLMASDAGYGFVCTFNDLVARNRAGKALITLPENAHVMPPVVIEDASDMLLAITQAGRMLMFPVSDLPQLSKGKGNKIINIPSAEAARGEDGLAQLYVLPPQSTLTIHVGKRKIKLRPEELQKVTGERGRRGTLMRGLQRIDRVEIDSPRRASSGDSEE
Summary of the method: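 Decatenation of 200 ng kinetoplast DNA by 1 unit enzyme, 30 min at 37 °C. S. aureus: 50 mM Tris-HCl pH 7.5, 350 mM potassium glutamate, 1.5 mM ATP; E. coli: 50 mM HEPES-KOH pH 7.6, 100 mM potassium glutamate, 1 mM ATP. Products resolved on 1.0% agarose in TAE.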

Escherichia coli K-12 = assay: Antibacterial activity (MIC) against Gram-negative strains, microdilution; format: cell-based; settings: K12, MIC after 24 h, read-out: MIC (Gram-nagative) K-12
Summary of the method: (§2)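 CLSI broth microdilution in Mueller-Hinton broth with 0.85% NaCl, inoculum about 10^5 […]. Incubated 35° C for 24 hours; MIC taken as the minimum inhibitory concentration, measured three times.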

[3] = system: Pseodomonas aeruginosa PAOI; assay: as above; format: cell-based; settings: MIC after 24 h, read-out: MIC (Gram-nagative) PAO1
Summary of the method: as §2

MSSA FDA 209P = assay: In vitro infectivity assay (MIC), broth dilution, Exp. Ex. 1-1; format: cell-based, Staphylococcus aureus; settings: Staphylococcus aureus; MSSA FDA 209P; Mueller-Hinton broth, 35° C., 24 hours; read-out: MIC MSS 209P
Summary of the method: as §1

MRSA N315 = assay: as above; format: cell-based, Staphylococcus aureus; settings: Staphylococcus aureus; MRSA N315; Mueller-Hinton broth, 35° C., 24 hours; read-out: MIC MRSA N315
Summary of the method: as §1

VISA Mu50 = assay: as above; format: cell-based, Staphylococcus aureus; settings: Staphylococcus aureus; VISA Mu50; Mueller-Hinton broth, 35° C., 24 hours; read-out: MIC VISA Mu50
Summary of the method: as §1

MRSA OM481 = assay: as above; format: cell-based, Staphylococcus aureus; settings: Staphylococcus aureus; MRSA OM481; Mueller-Hinton broth, 35° C., 24 hours; read-out: MIC MRSA OM481
Summary of the method: as §1

MRSA OM58 = assay: as above; format: cell-based, Staphylococcus aureus; settings: Staphylococcus aureus; MRSA OM58; Mueller-Hinton broth, 35° C., 24 hours; read-out: MIC MRSA OM58
Summary of the method: as §1

## O=c1c(O)c(-c2ccc(O)c(O)c2)oc2cc(O)cc(O)c12 [Quercetin, quercetin, reference compound]
[1]
  MIC: > 128 µg/mL
E. coli DNA gyrase
  IC50: 140 nM
VRE FN-1
  MIC: > 128 µg/mL
VRE NCTC12201
  MIC: > 128 µg/mL
[2]
  IC50: 4.42 µM
Escherichia coli K-12
  MIC: 64 µg/mL (≈ 212 µM)
[3]
  MIC: > 128 µg/mL
MSSA FDA 209P
  MIC: > 128 µg/mL
MRSA N315
  MIC: > 128 µg/mL
VISA Mu50
  MIC: > 128 µg/mL
MRSA OM481
  MIC: > 128 µg/mL
MRSA OM58
  MIC: > 128 µg/mL
